pEC50, pIC50: −log10 of the molar value.
Experiments:
[1] = biological target: cSrc (Homo sapiens (Human), UniProt P12931); experiment: c-Src enzyme inhibition (FRET, Z-LYTE); assay type: biochemical
Method in brief: (§1)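 Z-LYTE FRET kinase assay: enzyme (3000 or 2000 ng/mL stock, respectively) preincubated 2 h at RT with compound (4–0.004 μg/mL stocks), then FRET peptide plus ATP (800 μM stock for c-Src, 60 μM for Syk) added for 1 h. Protease development 1 h; phosphorylation from coumarin/fluorescein emission ratio.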

[2] = tested on: LPS-induced IL-8 release in d-U937 cells; experiment: LPS-induced IL-8 release in d-U937 cells; assay type: cell-based; details: Homo sapiens, dU937, read-out: LPS Induced Release of Cytokine in d-937 Cells IL-8 IC50
Method in brief: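 Human monocytic U937 cells were differentiated to macrophage-type cells with PMA (100 ng/mL) for 48 to 72 hr, pre-treated with test compound for 2 hr, then stimulated 4 hr with E. coli O111:B4 LPS (0.1 μg/mL). Supernatant TNFα and IL-8 were measured by sandwich ELISA; REC50 came from concentration-response curves.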

[3] = biological target: p38 MAPKα (Homo sapiens (Human), UniProt Q16539); experiment: p38 MAPKα enzyme inhibition (FRET, Z-LYTE); assay type: biochemical
[4] = tested on: d-U937 cells; experiment: Cell viability: MTT assay; assay type: cell-based, human; details: 1 μg/mL
Method in brief: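 MTT read-out (1 h, absorbance 550 nm) on d-U937 cells after pre-incubation with 1 or 10 μg/mL compound under two regimes: 4 h, 5% FCS, or 24 h, 10% FCS RPMI1640. Values are percent loss of viability relative to vehicle (0.5% DMSO), so increases are reported as negative.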

[5] = biological target: GSK3α (Homo sapiens (Human), UniProt P49840); experiment: GSK 3α enzyme inhibition (FRET, Z-LYTE); assay type: biochemical
Method in brief: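 Phosphorylation was read as the donor (coumarin) to acceptor (fluorescein) ratio after a 1 hr protease step destroying non-phosphorylated peptide. Before this, compound (4–0.004 μg/mL stocks) sat 2 hr at RT with GSK3α (500 ng/mL stock), followed by 1 hr kinase reaction with 8 μM peptide and 40 μM ATP stocks.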

[6] = tested on: Poly I:C-induced ICAM-1 expression in BEAS2B cells; experiment: Poly I:C-induced ICAM-1 expression in BEAS2B cells; assay type: cell-based; details: Homo sapiens, BEAS-2B, read-out: Poly IC induced ICAM1 in BEAS2B IC50
Method in brief: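 Cell-based ELISA read at 450 nm minus 655 nm, divided by crystal violet OD595 to normalize for cell number, gave ICAM-1 levels. Readout was taken 18 hr after poly I:C (1 μg/mL, Oligofectamine) transfection of human bronchial BEAS2B cells pretreated 2 hr with test compound.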

[7] = biological target: Syk (Homo sapiens (Human), UniProt P43405); experiment: Syk enzyme inhibition (FRET, Z-LYTE); assay type: biochemical
Method in brief: as §1

[8] = tested on: LPS-induced TNFα release in d-U937 cells; experiment: LPS-induced TNFα release in d-U937 cells; assay type: cell-based; details: Homo sapiens, dU937, relative to 10 μg/mL BIRB796, read-out: LPS Induced Release of Cytokine in d-937 Cells TNFα REC50
Method in brief: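 Read-out: TNFα and IL-8 released into supernatant, sandwich ELISA, expressed as inhibition versus vehicle at each dose and fitted to give REC50. Cells were PMA-differentiated U937 (100 ng/mL, 48–72 hr), compound-exposed 2 hr before a 4 hr LPS stimulus (0.1 μg/mL).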

Sequence of GSK3α (P49840 whole entry): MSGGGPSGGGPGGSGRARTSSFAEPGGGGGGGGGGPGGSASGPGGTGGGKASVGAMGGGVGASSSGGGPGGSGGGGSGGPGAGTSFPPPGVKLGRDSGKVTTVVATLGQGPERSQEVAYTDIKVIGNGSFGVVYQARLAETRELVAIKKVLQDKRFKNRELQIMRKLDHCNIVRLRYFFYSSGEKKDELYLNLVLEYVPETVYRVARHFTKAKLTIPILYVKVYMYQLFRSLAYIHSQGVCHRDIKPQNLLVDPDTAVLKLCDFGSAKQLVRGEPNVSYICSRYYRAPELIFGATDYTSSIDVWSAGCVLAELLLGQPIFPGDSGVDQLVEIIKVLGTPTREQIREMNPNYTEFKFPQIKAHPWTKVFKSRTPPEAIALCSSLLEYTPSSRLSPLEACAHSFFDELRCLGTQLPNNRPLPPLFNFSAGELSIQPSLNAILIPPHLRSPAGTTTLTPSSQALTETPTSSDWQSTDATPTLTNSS
Sequence of p38 MAPKα (Q16539 whole entry): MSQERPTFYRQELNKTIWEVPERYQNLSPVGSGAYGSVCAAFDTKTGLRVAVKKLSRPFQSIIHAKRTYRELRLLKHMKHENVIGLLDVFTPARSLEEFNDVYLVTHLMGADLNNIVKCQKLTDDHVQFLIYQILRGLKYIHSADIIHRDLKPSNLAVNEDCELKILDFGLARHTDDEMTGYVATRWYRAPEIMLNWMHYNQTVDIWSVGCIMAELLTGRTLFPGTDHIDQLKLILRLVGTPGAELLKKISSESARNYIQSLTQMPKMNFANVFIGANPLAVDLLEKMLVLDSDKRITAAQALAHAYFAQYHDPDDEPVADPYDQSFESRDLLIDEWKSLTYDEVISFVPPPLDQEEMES
Sequence of cSrc (P12931 whole entry, looked up): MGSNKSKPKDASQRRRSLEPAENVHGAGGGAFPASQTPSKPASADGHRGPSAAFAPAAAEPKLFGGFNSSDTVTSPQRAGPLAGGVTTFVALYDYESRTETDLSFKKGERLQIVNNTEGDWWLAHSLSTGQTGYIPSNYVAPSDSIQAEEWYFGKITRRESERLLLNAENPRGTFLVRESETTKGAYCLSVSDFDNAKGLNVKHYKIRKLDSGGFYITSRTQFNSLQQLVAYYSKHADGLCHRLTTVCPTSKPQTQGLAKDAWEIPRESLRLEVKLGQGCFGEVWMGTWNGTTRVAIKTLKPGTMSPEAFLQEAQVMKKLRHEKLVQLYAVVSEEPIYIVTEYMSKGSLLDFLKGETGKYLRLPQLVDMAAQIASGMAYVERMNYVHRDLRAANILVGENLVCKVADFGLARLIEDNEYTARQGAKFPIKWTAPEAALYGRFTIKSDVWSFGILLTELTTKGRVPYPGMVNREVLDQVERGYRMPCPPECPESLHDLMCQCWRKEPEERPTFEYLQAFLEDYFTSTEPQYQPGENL

Row | SMILES | pIC50 [1] | pIC50 [2] | pIC50 [3] | MTT Assay Cell viability at time point in d-U937 cells 4 h [4] | MTT Assay Cell viability at time point in d-U937 cells 24 h [4] | pIC50 [5] | pIC50 [6] | pIC50 [7] | pEC50 [8]
1 | Cc1ccc(-n2nc(C(C)(C)C)cc2NC(=O)Nc2ccc(Oc3ccnc(Nc4cnc5[nH]ncc5c4)n3)c3ccccc23)cc1 [Example 6, 1-(4-((2-((1H-Pyrazolo[3,4-b]pyridin-5-yl)amino)pyrimidin-4-yl)oxy)naphthalen-1-yl)-3-(3-(tert-butyl)-1-(p-tolyl)-1H-pyrazol-5-yl)urea] | 7.85 | 8.28 | 6.75 | −ve (−ve and +ve indicate that the value is below and above respectively, the no significant effect threshold, defined as 30% inhibition at 1 μg/mL at the time point indicated.) | −ve (−ve and +ve indicate that the value is below and above respectively, the no significant effect threshold, defined as 30% inhibition at 1 μg/mL at the time point indicated.) | < 4.80 | 8.77 | 6.79 | 8.80
2 | Cc1ccc(-n2nc(C(C)(C)C)cc2NC(=O)Nc2ccc(Oc3ccnc(Nc4ccc5[nH]ccc5c4)n3)c3ccccc23)cc1 [Example 1, 1-(4-((2-((1H-Indol-5-yl)amino)pyrimidin-4-yl)oxy)naphthalen-1-yl)-3-(3-(tert-butyl)-1-(p-tolyl)-1H-pyrazol-5-yl)urea] | 7.68 | 8.66 | 6.73 | −ve (−ve and +ve indicate that the value is below and above respectively, the no significant effect threshold, defined as 30% inhibition at 1 μg/mL at the time point indicated.) | −ve (−ve and +ve indicate that the value is below and above respectively, the no significant effect threshold, defined as 30% inhibition at 1 μg/mL at the time point indicated.) | < 5.79 | 8.33 | 7.30 | 8.77
3 | CC(C)c1cc(NC(=O)Nc2ccc(Oc3ccnc(Nc4ccc5[nH]ncc5c4)n3)c3ccccc23)n(-c2cccc(OCCN3CCOCC3)c2)n1 [Example 53, 1-(4-((2-((1H-indazol-5-yl)amino)pyrimidin-4-yl)oxy)naphthalen-1-yl)-3-(3-isopropyl-1-(3-(2-morpholinoethoxy)phenyl)-1H-pyrazol-5-yl)urea] | 8.40 | 6.76 | 8.10 | −ve (−ve and +ve indicate that the value is below and above respectively, the no significant effect threshold, defined as 30% inhibition at 1 μg/mL at the time point indicated.) | −ve (−ve and +ve indicate that the value is below and above respectively, the no significant effect threshold, defined as 30% inhibition at 1 μg/mL at the time point indicated.) | 4.95 | 7.41 | 8.52 | 7.31
4 | CC(C)(C)c1cc(NC(=O)Nc2ccc(Oc3ccnc(Nc4ccc5[nH]ccc5c4)n3)c3ccccc23)n(-c2ccc(O)cc2)n1 [Example 37, 1-(4-((2-((1H-indol-5-yl)amino)pyrimidin-4-yl)oxy)naphthalen-1-yl)-3-(3-(tert-butyl)-1-(4-hydroxyphenyl)-1H-pyrazol-5-yl)urea] | 7.80 | 8.23 | 6.48 | −ve (−ve and +ve indicate that the value is below and above respectively, the no significant effect threshold, defined as 30% inhibition at 1 μg/mL at the time point indicated.) | −ve (−ve and +ve indicate that the value is below and above respectively, the no significant effect threshold, defined as 30% inhibition at 1 μg/mL at the time point indicated.) | < 5.80 | 8.43 | 6.85 | 8.60
5 | Cc1ccc(-n2nc(C(C)(C)C)cc2NC(=O)Nc2ccc(Oc3ccnc(Nc4cc(Cl)c5[nH]ncc5c4)n3)c3ccccc23)cc1 [Example 28, 1-(3-(tert-butyl)-1-(p-tolyl)-1H-pyrazol-5-yl)-3-(4-((2-((7-chloro-1H-indazol-5-yl)amino)pyrimidin-4-yl)oxy)naphthalen-1-yl)urea] | 6.79 | 8.77 | < 5.82 | −ve (−ve and +ve indicate that the value is below and above respectively, the no significant effect threshold, defined as 30% inhibition at 1 μg/mL at the time point indicated.) | −ve (−ve and +ve indicate that the value is below and above respectively, the no significant effect threshold, defined as 30% inhibition at 1 μg/mL at the time point indicated.) | < 5.82 | 8.47 | 6.15 | 8.80
6 | COc1ccc(-n2nc(C(C)(C)C)cc2NC(=O)Nc2ccc(Oc3ccnc(Nc4ccc5[nH]ccc5c4)n3)c3ccccc23)cc1 [Example 38, 1-(4-((2-((1H-indol-5-yl)amino)pyrimidin-4-yl)oxy)naphthalen-1-yl)-3-(3-(tert-butyl)-1-(4-methoxyphenyl)-1H-pyrazol-5-yl)urea] | 8.00 | 8.96 | 6.74 | −ve (−ve and +ve indicate that the value is below and above respectively, the no significant effect threshold, defined as 30% inhibition at 1 μg/mL at the time point indicated.) | −ve (−ve and +ve indicate that the value is below and above respectively, the no significant effect threshold, defined as 30% inhibition at 1 μg/mL at the time point indicated.) | < 5.81 | 8.60 | 7.59 | 8.74
7 | CC(C)(C)c1cc(NC(=O)Nc2ccc(Oc3ccnc(Nc4ccc5[nH]nnc5c4)n3)c3ccccc23)n(-c2ccc(OCCN3CCOCC3)cc2)n1 [Example 81, 1-(4-((2-((1H-benzo[d][1,2,3]triazol-5-yl)amino)pyrimidin-4-yl)oxy)naphthalen-1-yl)-3-(3-(tert-butyl)-1-(4-(2-morpholinoethoxy)phenyl)-1H-pyrazol-5-yl)urea] | 8.30 | 8.80 | 7.18 | −ve (−ve and +ve indicate that the value is below and above respectively, the no significant effect threshold, defined as 30% inhibition at 1 μg/mL at the time point indicated.) | −ve (−ve and +ve indicate that the value is below and above respectively, the no significant effect threshold, defined as 30% inhibition at 1 μg/mL at the time point indicated.) | 6.19 | 8.00 | 7.85 | 8.85
8 | Cc1ccc(-n2nc(C(C)(C)C)cc2NC(=O)Nc2ccc(Oc3ccnc(Nc4cccc5cn[nH]c45)n3)c3ccccc23)cc1 [Example 25] | 7.34 | 8.77 | 6.28 | −ve (−ve and +ve indicate that the value is below and above respectively, the no significant effect threshold, defined as 30% inhibition at 1 μg/mL at the time point indicated.) | −ve (−ve and +ve indicate that the value is below and above respectively, the no significant effect threshold, defined as 30% inhibition at 1 μg/mL at the time point indicated.) | < 4.80 | 7.85 | 6.12 | 9.10
9 | COc1ccc(-n2nc(C(C)(C)C)cc2NC(=O)Nc2ccc(Oc3ccnc(Nc4ccc5c(cnn5CCN5CCOCC5)c4)n3)c3ccccc23)cc1 [Example 43, 1-(3-(tert-butyl)-1-(4-methoxyphenyl)-1H-pyrazol-5-yl)-3-(4-((2-((1-(2-morpholinoethyl)-1H-indazol-5-yl)amino)pyrimidin-4-yl)oxy)naphthalen-1-yl)urea] | 8.70 | 8.74 | 7.82 | −ve (−ve and +ve indicate that the value is below and above respectively, the no significant effect threshold, defined as 30% inhibition at 1 μg/mL at the time point indicated.) | −ve (−ve and +ve indicate that the value is below and above respectively, the no significant effect threshold, defined as 30% inhibition at 1 μg/mL at the time point indicated.) | 6.31 | 8.62 | 7.68 | 8.89
